Experimental data: patent US20240228572A1 (i2o Therapeutics, Inc., priority 2020, published 2024)
*1 amine or outer side, *2 acyl side, *3 side chain or, on linkers, in order; H or OH if unused. Where a SMILES comes first, the peptide text is derived from it. Bridges are numbered along the chain shown (N, C = ends). Side-chain parts run from the residue outwards. The star is where a group is joined. C20 diacid = O=C(O)CCCCCCCCCCCCCCCCCCC(=O)*; γGlu = O=C(O)[C@H](CCC(=O)[*:2])N[*:1]; AEEA = NCCOCCOCC(=O)O

Legend:
[1] = molecular target: T1, human GLP-1 receptor (GLP-1R) (Homo sapiens, UniProt P43220); test: cAMP accumulation assay, CHO-K1 cells stably expressing human GLP-1R; type: cell-based; details: cAMP accumulation, mean pEC50, Table 10
T1 construct: expressed in transfected cells

[2] = molecular target: T2, human Glucagon receptor (GCGR) (Homo sapiens, UniProt P47871); test: cAMP accumulation assay, CHO-K1 cells expressing human GCGR; type: cell-based; details: mean pEC50, Table 10
T2 construct: A cDNA fragment encoding the full-length open reading frame of the human GCGR; expressed in transfected cells; host or cells: CHO-K1, pcDNA3.1+, Lipofectamine 2000

[3] = cited from earlier work

T2 sequence (P47871 26-477): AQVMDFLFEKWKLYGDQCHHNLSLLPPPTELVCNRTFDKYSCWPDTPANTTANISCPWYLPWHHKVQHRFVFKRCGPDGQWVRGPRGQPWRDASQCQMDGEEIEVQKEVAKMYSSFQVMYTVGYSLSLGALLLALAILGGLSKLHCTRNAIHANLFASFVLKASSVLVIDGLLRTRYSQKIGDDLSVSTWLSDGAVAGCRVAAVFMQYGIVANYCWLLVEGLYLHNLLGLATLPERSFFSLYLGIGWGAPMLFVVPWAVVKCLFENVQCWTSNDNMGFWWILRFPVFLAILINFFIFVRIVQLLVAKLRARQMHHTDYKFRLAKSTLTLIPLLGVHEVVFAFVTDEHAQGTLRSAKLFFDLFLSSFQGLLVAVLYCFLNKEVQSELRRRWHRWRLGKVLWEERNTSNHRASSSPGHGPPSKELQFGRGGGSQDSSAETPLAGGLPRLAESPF
T1 sequence (P43220 24-463): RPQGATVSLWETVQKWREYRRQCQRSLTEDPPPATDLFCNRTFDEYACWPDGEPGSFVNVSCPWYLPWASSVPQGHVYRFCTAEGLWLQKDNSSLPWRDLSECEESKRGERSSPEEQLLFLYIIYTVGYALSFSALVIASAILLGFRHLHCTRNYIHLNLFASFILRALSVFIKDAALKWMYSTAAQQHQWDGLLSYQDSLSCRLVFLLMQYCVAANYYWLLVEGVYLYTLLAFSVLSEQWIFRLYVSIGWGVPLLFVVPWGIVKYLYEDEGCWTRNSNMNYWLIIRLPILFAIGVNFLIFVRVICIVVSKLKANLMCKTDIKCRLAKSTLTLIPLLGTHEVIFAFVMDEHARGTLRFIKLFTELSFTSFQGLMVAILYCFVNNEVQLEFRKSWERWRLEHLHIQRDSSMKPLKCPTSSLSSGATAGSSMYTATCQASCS

EC50 [1]	EC50 [2]	Compound	half-life in serum [3]
> 1000 pM	1.26 pM	CC(C)C[C@H](NC(=O)[C@H](Cc1ccc(O)cc1)NC(=O)[C@H](CCCCN)NC(=O)[C@H](CO)NC(=O)[C@H](Cc1ccc(O)cc1)NC(=O)[C@H](CC(=O)O)NC(=O)[C@H](CO)NC(=O)[C@@H](NC(=O)[C@H](Cc1ccccc1)NC(=O)[C@@H](NC(=O)CNC(=O)[C@H](Cc1c[nH]cn1)NC(=O)[C@H](CO)NC(=O)[C@@H](N)Cc1ccc(O)cc1)[C@@H](C)O)[C@@H](C)O)C(=O)N[C@@H](CC(=O)O)C(=O)N[C@@H](CCCCNC(=O)CC[C@H](NC(=O)CC[C@H](NC(=O)COCCOCCNC(=O)CCCCCCCCCCCCCCCCCCC(=O)O)C(=O)O)C(=O)O)C(=O)N[C@@H](CCCCN)C(=O)N[C@@H](Cc1ccc(O)cc1)C(=O)N[C@@H](C)C(=O)N[C@H]1CCC(=O)NCCCC[C@@H](C(=O)N[C@@H](Cc2c[nH]c3ccccc23)C(=O)N[C@@H](CC(C)C)C(=O)N[C@@H](CCC(=O)O)C(=O)N[C@@H](CC(=O)O)C(=O)N[C@@H](CCC(=O)O)C(=O)N2CCC[C@H]2C(=O)N[C@@H](CO)C(=O)N[C@@H](CO)C(=O)NCC(=O)N[C@@H](CO)C(=O)N2CCC[C@H]2C(=O)N2CCC[C@H]2C(=O)N2CCC[C@H]2C(=O)N[C@@H](CO)C(=O)O)NC(=O)[C@H](C(C)C)NC(=O)[C@H](Cc2ccccc2)NC(=O)[C@H](CCCCN)NC1=O [Compound A33] (H-YSHGTFTSDYSKYLDK([γGlu-γGlu-AEEA-C20 diacid])KYAEKFVKWLEDEPSSGSPPPS-OH; lactam 20-24; N-terminus assumed)	
> 1000 pM	1.26 pM	CC(C)C[C@H](NC(=O)[C@H](Cc1ccc(O)cc1)NC(=O)[C@H](CCCCN)NC(=O)[C@H](CO)NC(=O)[C@H](Cc1ccc(O)cc1)NC(=O)[C@H](CC(=O)O)NC(=O)[C@H](CO)NC(=O)[C@@H](NC(=O)[C@H](Cc1ccccc1)NC(=O)[C@@H](NC(=O)CNC(=O)[C@H](Cc1c[nH]cn1)NC(=O)[C@H](CO)NC(=O)[C@@H](N)Cc1ccc(O)cc1)[C@@H](C)O)[C@@H](C)O)C(=O)N[C@@H](CC(=O)O)C(=O)N[C@@H](CCCCNC(=O)CC[C@H](NC(=O)CC[C@H](NC(=O)COCCOCCNC(=O)CCCCCCCCCCCCCCCCCCC(=O)O)C(=O)O)C(=O)O)C(=O)N[C@@H](CCCCN)C(=O)N[C@@H](Cc1ccc(O)cc1)C(=O)N[C@@H](C)C(=O)N[C@H]1CCC(=O)NCCCC[C@@H](C(=O)N[C@@H](Cc2c[nH]c3ccccc23)C(=O)N[C@@H](CC(C)C)C(=O)N[C@@H](CCC(=O)O)C(=O)N[C@@H](CC(=O)O)C(=O)N[C@@H](CCC(=O)O)C(N)=O)NC(=O)[C@H](C(C)C)NC(=O)[C@H](Cc2ccccc2)NC(=O)[C@H](CCCCN)NC1=O [Compound A35] (H-YSHGTFTSDYSKYLDK([γGlu-γGlu-AEEA-C20 diacid])KYAEKFVKWLEDE-NH2; lactam 20-24; N-terminus assumed)	
		human amylin: Human amylin, or islet amyloid polypeptide (IAPP), is a 37-residue polypeptide hormone (KCNTATCATQRLANFLVHSSNNFGAILSSTNVGSNTY; Islet amyloid polypeptide; UniProt P10997 34-70, looked up)	about 13 minutes

Compound	EC50 [1]	EC50 [2]	half-life in serum [3]
CC(C)C[C@H](NC(=O)[C@H](Cc1ccc(O)cc1)NC(=O)[C@H](CCCCN)NC(=O)[C@H](CO)NC(=O)[C@H](Cc1ccc(O)cc1)NC(=O)[C@H](CC(=O)O)NC(=O)[C@H](CO)NC(=O)[C@@H](NC(=O)[C@H](Cc1ccccc1)NC(=O)[C@@H](NC(=O)CNC(=O)[C@H](Cc1c[nH]cn1)NC(=O)[C@H](CO)NC(=O)[C@@H](N)Cc1ccc(O)cc1)[C@@H](C)O)[C@@H](C)O)C(=O)N[C@@H](CC(=O)O)C(=O)N[C@@H](CCCCNC(=O)CC[C@H](NC(=O)CC[C@H](NC(=O)COCCOCCNC(=O)CCCCCCCCCCCCCCCCCCC(=O)O)C(=O)O)C(=O)O)C(=O)N[C@@H](CCCCN)C(=O)N[C@@H](Cc1ccc(O)cc1)C(=O)N[C@@H](C)C(=O)N[C@H]1CCC(=O)NCCCC[C@@H](C(=O)N[C@@H](Cc2c[nH]c3ccccc23)C(=O)N[C@@H](CC(C)C)C(=O)N[C@@H](CCC(=O)O)C(=O)N[C@@H](CC(=O)O)C(=O)N[C@@H](CCC(=O)O)C(=O)N2CCC[C@H]2C(=O)N[C@@H](CO)C(=O)N[C@@H](CO)C(=O)NCC(=O)N[C@@H](C)C(=O)N2CCC[C@H]2C(=O)N2CCC[C@H]2C(=O)N2CCC[C@H]2C(=O)N[C@@H](CO)C(N)=O)NC(=O)[C@H](C(C)C)NC(=O)[C@H](Cc2ccccc2)NC(=O)[C@H](CCCCN)NC1=O [Compound A34] (H-YSHGTFTSDYSKYLDK([γGlu-γGlu-AEEA-C20 diacid])KYAEKFVKWLEDEPSSGAPPPS-NH2; lactam 20-24)	> 1000 pM	1.26 pM	
